# From patent US20090221441A1, “THREE-DIMENSIONAL CELLULAR ARRAY CHIP AND PLATFORM FOR TOXICOLOGY ASSAYS” (Rensselaer Polytechnic Institute, priority 2005, published 2009)
# “Also recorded” adds a separate entry of the source.
# Legend:
# [1] = Cytotoxicity of compounds and their P450-generated metabolites, Hep3B DataChip stamped with MetaChip; conditions: human
# Description: (§1) The cytotoxicity of drugs (or drug metabolites) was determined by staining the slide containing the cells with a Live/Dead test kit (Molecular Probes) that produces a green fluorescent response from living cells. At the end of the 3-day culture period post stamping, the three-dimensional cell chip (DataChip) was rinsed three times in PBS for 5 min each. One mL of a dye solution containing 0.5 μM calcein AM was applied to each three-dimensional cell chip using a glass slide with 1 mm thick perimeter gasket acting as a barrier to prevent loss of the dye solution.
# (§2) Following incubation for 50 minutes at room temperature, excess dye in the collagen-gel drops was removed by incubating the slides in a petri dish containing 16 mL of PBS for 30 min on a gyratory shaker at 60 rpm. The three-dimensional cell chip was dried thoroughly with nitrogen. The three-dimensional cell chip was scanned with the GenePix® Professional 4200A scanner equipped with blue laser and standard blue filter to determine the green fluorescent intensity and was quantified from the scanning image using GenePix Pro 6.0 (Molecular Devices Co.).
# (§3) Percent live cells=(FReaction/FMax)×100
# (§4) where FReaction is the green fluorescence intensity of the reaction spot and FMax is the green fluorescence intensity of untreated fully viable cells.
# (§5) For efficient stamping, MTMOS-coated glass slides were prepared to contain a sol-gel barrier on the periphery of the slides.
# (§6) To this end […] of methyltrimethoxysilane (MTMOS) sol was prepared by mixing 2 mL of MTMOS with 1 mL of HCl (10 mM) and sonicated for 10 min. The sol was spotted on the periphery of the MTMOS-coated slide and then the slide was baked in an oven for 30 min at 120° C.
# (§7) The MetaChip was stored at −80° C. for 1 day prior to use. Cytotoxicity studies were performed by spotting 20 nL of test compound in distilled water (0-2 mM) onto the MetaChip spots and partially dried.
# (§8) This was followed by stamping of the three-dimensional cell chip (DataChip) containing either MCF7 or Hep3B cells onto the MetaChip.
# (§9) To this end, a MetaChip consisting of 20×54 alginate spots was prepared; each spot containing a single human P450 isoform (CYP1A2, CYP2D6, or CYP3A4), a mixture of the three isoforms, or no P450 as a test compound only control. Addition of test compounds was carried out by overlay spotting of solutions of these compounds onto the MetaChip, which was then stamped on top of the DataChip.
# (§10) Using three DataChips in combination with three MetaChips, IC50 values for 27 compounds and their P450-generated metabolites against human Hep3B cells were determined. […] The three P450 isoforms were used along with an equimolar mixture of the three isoforms and a test compound only control without P450. The test compounds were added to the MetaChip, which was then stamped onto the DataChip and incubated for 6 h. This was followed by removing the DataChip, rinsing with growth medium, incubating in media for 3 days, and then stained for cell viability.
# [2] = test system: human Hep3B cells; test: in vitro
# Description: as §1, §2, §3, §4, §5, §6, §7, §8, §9, §10
# [3] = P450 activity determination with blue fluorogenic substrates in 384-well plate; assay type: biochemical, human
# Description: To assess the intrinsic reactivity of P450s in alginate matrices, reactions were performed in wells of a 384-well plate. P450-containing alginate sol was prepared by dispensing 24 μL of P450 baculosomes (1 nmol P450/mL), 36 μL of distilled water, and 60 μL of alginate (2%) in distilled water. Five microliters of this solution were spotted onto 5 μL of the dried PLL-barium spot in a 384-well. Followed by storage of the P450-alginate gel drops at −80° C. for 1 day, 25 μL of blue fluorogenic substrates (BOMCC for CYP3A4 and EOMCC for CYP1A2 and CYP2D6) containing 250 μM NADP^+ and its regeneration system (8 mM glucose-6-phosphate and 1 U/mL glucose-6-phosphate dehydrogenase) in 50 mM potassium phosphate buffer (pH 8) were dispensed onto the thawed P450-alginate gel drop.
# As a control, soluble P450 without alginate was also used. The blue fluorescent 7-hydroxycoumarin released by P450-catalyzed oxidation of BOMCC or EOMCC was monitored as a function of time using a BioAssay Reader HTS 7000 Plus (Perkin Elmer, Norwalk, Conn.) at an excitation wavelength of 430 nm and emission wavelength of 497 nm.
# [4] = IC50, CYP1A2, Hep3B DataChip, MetaChip spots with CYP1A2
# [5] = IC50, CYP2D6, Hep3B DataChip, MetaChip spots with CYP2D6
# [6] = IC50, CYP3A4, Hep3B DataChip, MetaChip spots with CYP3A4
# [7] = IC50, Mixture, Hep3B DataChip, equimolar mixture of CYP1A2, CYP2D6, CYP3A4
# [8] = IC50, No P450, Hep3B DataChip, test compound only control without P450
# [9] = Hep3B cells, compared with no P450
# [10] = Soluble enzyme (control, in solution)
compound,measurement,setting,value
CN(Cc1cnc2nc(N)nc(N)c2n1)c1ccc(C(=O)N[C@@H](CCC(=O)O)C(=O)O)cc1 [Methotrexate],IC50 at 6 h,[1]; [4],2.79 ± 0.73 µM
same,IC50 at 6 h,[1]; [5],38.3 ± 12.1 µM
same,IC50 at 6 h,[1]; [6],10.9 ± 2.76 µM
same,IC50 at 6 h,[1]; [7],8 ± 2.97 µM
same,IC50 at 6 h,[1]; [8],2.41 ± 0.55 µM
same,Activation or deactivation of the toxic response by CYP2D6,[2],deactivating
same,Activation or deactivation of the toxic response by CYP3A4,[2],deactivated
CN1CCCC1c1cccnc1 (centres unmarked) [Nicotine],IC50,"[1]; IC50, CYP1A2",90.8 ± 20.3 µM
same,IC50,"[1]; IC50, CYP2D6",158 ± 39.5 µM
same,IC50,"[1]; IC50, CYP3A4",647 ± 191 µM
same,IC50,"[1]; IC50, Mixture",377 ± 147 µM
same,IC50,"[1]; IC50, No P450",29.5 ± 4.12 µM
same,Activation or deactivation of the toxic response by CYP1A2,[2],moderately to weakly deactivated
same,Activation or deactivation of the toxic response by CYP2D6,[2],deactivating
same,Activation or deactivation of the toxic response by CYP3A4,[2],"deactivated chloroquine, quinidine, nicotine (strongly)"
"CC(=O)O[C@H]1C(=O)[C@@]2(C)[C@H]([C@H](OC(=O)c3ccccc3)[C@]3(O)C[C@H](OC(=O)[C@H](O)[C@@H](NC(=O)c4ccccc4)c4ccccc4)C(C)=C1C3(C)C)[C@]1(OC(C)=O)CO[C@@H]1C[C@@H]2O [Paclitaxel, paclitaxel]",Activation or deactivation of the toxic response by CYP2D6,[2],deactivating
"C[n+]1ccc(-c2cc[n+](C)cc2)cc1 [Paraquat, paraquat]",IC50,[1]; [4],5.06 ± 0.29 µM
same,IC50,[1]; [5],20.8 ± 1.8 µM
same,IC50,[1]; [6],52 ± 9.12 µM
same,IC50,[1]; [7],44.2 ± 6.05 µM
same,IC50,[1]; [8],79.8 ± 12.7 µM
same,Activation or deactivation of the toxic response by the mixture of the three P450 isoforms,[2]; Hep3B cells,activation
same,Activation or deactivation of the toxic response by CYP1A2,[2]; [9],activation
same,Activation or deactivation of the toxic response by CYP2D6,[2]; [9],activation; also recorded: activated
Oc1c(Cl)c(Cl)c(Cl)c(Cl)c1Cl [Pentachlorophenol],IC50,"[1]; IC50, CYP1A2",> 1000 µM
same,IC50,"[1]; IC50, CYP2D6",> 1000 µM
same,IC50,"[1]; IC50, CYP3A4",> 1000 µM
same,IC50,"[1]; IC50, Mixture",489 ± 272 µM
same,IC50,"[1]; IC50, No P450",> 1000 µM
C=C[C@H]1C[N@@]2CC[C@H]1C[C@@H]2[C@@H](O)c1ccnc2ccc(OC)cc12 [Quinidine],IC50 at 6 h,[1]; [4],92.9 ± 7.5 µM
same,IC50 at 6 h,[1]; [5],106 ± 9.05 µM
same,IC50 at 6 h,[1]; [6],126 ± 10.2 µM
same,IC50 at 6 h,[1]; [7],246 ± 39.4 µM
same,IC50 at 6 h,[1]; [8],19.2 ± 2.36 µM
same,Activation or deactivation of the toxic response by the mixture of the three P450 isoforms,[2]; Hep3B cells,greater deactivation in the mixture than with any of the three individual isoforms
same,Activation or deactivation of the toxic response by CYP1A2,[2]; [9],moderately to weakly deactivated
same,Activation or deactivation of the toxic response by CYP2D6,[2]; [9],deactivating
same,Activation or deactivation of the toxic response by CYP3A4,[2]; [9],deactivated
"O=c1[nH]c(=O)n(C2CCCO2)cc1F (centres unmarked) [Tegafur, 5-fluoro-1-(tetrahydro-2-furfuryl)-uracil]",IC50 at 6 h,[1]; [4],> 1000 µM
same,IC50 at 6 h,[1]; [5],> 1000 µM
same,IC50 at 6 h,[1]; [6],54800 ± 21400 µM
same,IC50 at 6 h,[1]; [7],> 1000 µM
same,IC50 at 6 h,[1]; [8],> 1000 µM
Cn1c(=O)c2[nH]cnc2n(C)c1=O [Theophylline],IC50 at 6 h,[1]; [4],239 ± 56.4 µM
same,IC50 at 6 h,[1]; [5],119 ± 26.3 µM
same,IC50 at 6 h,[1]; [6],36.9 ± 11.2 µM
same,IC50 at 6 h,[1]; [7],84.3 ± 22.1 µM
same,IC50 at 6 h,[1]; [8],38.4 ± 8.92 µM
same,Activation or deactivation of the toxic response by CYP1A2,[2],moderately to weakly deactivated
same,Activation or deactivation of the toxic response by CYP2D6,[2],deactivating
CC(=O)CC(c1ccccc1)c1c(O)c2ccccc2oc1=O (centres unmarked) [Warfarin],IC50 at 6 h,"[1]; IC50, CYP1A2",> 1000 µM
same,IC50 at 6 h,"[1]; IC50, CYP2D6",> 1000 µM
same,IC50 at 6 h,"[1]; IC50, CYP3A4",> 1000 µM
same,IC50 at 6 h,"[1]; IC50, Mixture",> 1000 µM
same,IC50 at 6 h,"[1]; IC50, No P450",> 1000 µM
"CYP3A4: human P450 isoform (baculosomes), soluble or encapsulated in alginate; assayed with BOMCC",Km,[3]; In Alginate,35.4 ± 8.98 µM
same,kcat,[3]; In Alginate,0.0775 ± 0.0145 s⁻¹
same,Km,[3]; [10],33.7 ± 2.94 µM
same,kcat,[3]; [10],0.125 ± 0.008 s⁻¹
